Earlier results in patent publication US20220401449A1, “COMPOSITIONS PROVIDING SLOW RELEASE OF CAFFEINE AND BEVERAGES COMPRISING THE SAME” (priority 2021, published 2022).
Where two headings read alike, the source gives them in different places.

With `Cn1c(=O)c2c(ncn2C)n(C)c1=O` [caffeine] as the compound, how does the “caffeine's saturation concentration in water” value (80° C.) read?
The value was “about 200 mg/ml”.

What about the “caffeine's saturation concentration in water” value (room temperature) of the same compound?
The value was “about 16 mg/ml”.
